Each structure is given as a SMILES string. ± gives the expanded uncertainty stated by the source.

The conditions of one data set: 308.15 K; 101.33 kPa; Liquid; Concentric cylinders viscometry.
A word on the viscosity: it is the resistance of a fluid to flow. Consider `CCCCCCCc1cccc[n+]1CC.O=S(=O)([N-]S(=O)(=O)C(F)(F)F)C(F)(F)F`, for which the viscosity turned out to be 79.9 ± 0.67 mPa·s.

For `CCCCCCCCc1cccc[n+]1CC.O=S(=O)([N-]S(=O)(=O)C(F)(F)F)C(F)(F)F`, the viscosity stood at 93.45 ± 0.94 mPa·s.

For the compound `CCCCCc1cccc[n+]1CC.O=S(=O)([N-]S(=O)(=O)C(F)(F)F)C(F)(F)F`, the viscosity turned out to be 66.14 ± 0.43 mPa·s.

Consider `CCCCCCc1cccc[n+]1CC.O=S(=O)([N-]S(=O)(=O)C(F)(F)F)C(F)(F)F`, for which the viscosity is given as 71.93 ± 0.53 mPa·s.

Still in this data set, the particulars now being: 308.15 K; 101.33 kPa; Liquid; Vibrating tube method.
In general, mass density refers to the mass of a sample divided by its volume. Turning to `CCc1cccc[n+]1CC.O=S(=O)([N-]S(=O)(=O)C(F)(F)F)C(F)(F)F` [1,2-diethylpyridin-1-ium bis((trifluoromethyl)sulfonyl)imide], the mass density was 1461.1 ± 1.2 kg/m3.

With `CCCc1cccc[n+]1CC.O=S(=O)([N-]S(=O)(=O)C(F)(F)F)C(F)(F)F`, the mass density came to 1437.8 ± 1.1 kg/m3.

With `CCCCc1cccc[n+]1CC.O=S(=O)([N-]S(=O)(=O)C(F)(F)F)C(F)(F)F`, the mass density is on record as 1400 ± 1.1 kg/m3.

On to `CCCCCCCc1cccc[n+]1CC.O=S(=O)([N-]S(=O)(=O)C(F)(F)F)C(F)(F)F`, for which the mass density was found to be 1312.2 ± 1.1 kg/m3.

As for `CCCCCCCCc1cccc[n+]1CC.O=S(=O)([N-]S(=O)(=O)C(F)(F)F)C(F)(F)F`, the mass density is 1289 ± 1.1 kg/m3.

With `CCCCCc1cccc[n+]1CC.O=S(=O)([N-]S(=O)(=O)C(F)(F)F)C(F)(F)F`, the mass density turned out to be 1362.2 ± 1.1 kg/m3.

Take `CCCCCCc1cccc[n+]1CC.O=S(=O)([N-]S(=O)(=O)C(F)(F)F)C(F)(F)F`: the mass density came out at 1335.5 ± 1.1 kg/m3.

The data set is the same for the next values; noted with them: 313.15 K; 101.33 kPa; Liquid; Concentric cylinders viscometry.
As to `CCc1cccc[n+]1CC.O=S(=O)([N-]S(=O)(=O)C(F)(F)F)C(F)(F)F` [1,2-diethylpyridin-1-ium bis((trifluoromethyl)sulfonyl)imide], the viscosity amounted to 36.91 ± 0.23 mPa·s.

In the case of `CCCc1cccc[n+]1CC.O=S(=O)([N-]S(=O)(=O)C(F)(F)F)C(F)(F)F`, the viscosity is on record as 51.37 ± 0.27 mPa·s.

Take `CCCCc1cccc[n+]1CC.O=S(=O)([N-]S(=O)(=O)C(F)(F)F)C(F)(F)F`: the viscosity was found to be 53.17 ± 0.28 mPa·s.

As to `CCCCCCCc1cccc[n+]1CC.O=S(=O)([N-]S(=O)(=O)C(F)(F)F)C(F)(F)F`, the viscosity is 63.6 ± 0.4 mPa·s.

As for `CCCCCCCCc1cccc[n+]1CC.O=S(=O)([N-]S(=O)(=O)C(F)(F)F)C(F)(F)F`, the viscosity is given as 73.88 ± 0.56 mPa·s.

Consider `CCCCCc1cccc[n+]1CC.O=S(=O)([N-]S(=O)(=O)C(F)(F)F)C(F)(F)F`, for which the viscosity is listed as 53 ± 0.28 mPa·s.

On to `CCCCCCc1cccc[n+]1CC.O=S(=O)([N-]S(=O)(=O)C(F)(F)F)C(F)(F)F`, for which the viscosity turned out to be 57.52 ± 0.33 mPa·s.

The same data set, now with this note: 313.15 K; 101.33 kPa; Liquid; Vibrating tube method.
Consider `CCc1cccc[n+]1CC.O=S(=O)([N-]S(=O)(=O)C(F)(F)F)C(F)(F)F` [1,2-diethylpyridin-1-ium bis((trifluoromethyl)sulfonyl)imide], for which the mass density was found to be 1456.3 ± 1.2 kg/m3.

As for `CCCc1cccc[n+]1CC.O=S(=O)([N-]S(=O)(=O)C(F)(F)F)C(F)(F)F`, the mass density is on record as 1433.1 ± 1.1 kg/m3.

On to `CCCCc1cccc[n+]1CC.O=S(=O)([N-]S(=O)(=O)C(F)(F)F)C(F)(F)F`, for which the mass density worked out at 1395.4 ± 1.1 kg/m3.

With `CCCCCCCc1cccc[n+]1CC.O=S(=O)([N-]S(=O)(=O)C(F)(F)F)C(F)(F)F`, the mass density was 1307.9 ± 1.1 kg/m3.

As to `CCCCCCCCc1cccc[n+]1CC.O=S(=O)([N-]S(=O)(=O)C(F)(F)F)C(F)(F)F`, the mass density is recorded as 1284.8 ± 1.1 kg/m3.

Turning to `CCCCCc1cccc[n+]1CC.O=S(=O)([N-]S(=O)(=O)C(F)(F)F)C(F)(F)F`, the mass density is 1357.8 ± 1.1 kg/m3.

As for `CCCCCCc1cccc[n+]1CC.O=S(=O)([N-]S(=O)(=O)C(F)(F)F)C(F)(F)F`, the mass density is 1331.2 ± 1.1 kg/m3.

The data set is the same for the next values; noted with them: 318.15 K; 101.33 kPa; Liquid; Concentric cylinders viscometry.
Take `CCc1cccc[n+]1CC.O=S(=O)([N-]S(=O)(=O)C(F)(F)F)C(F)(F)F` [1,2-diethylpyridin-1-ium bis((trifluoromethyl)sulfonyl)imide]: the viscosity was 30.88 ± 0.19 mPa·s.

`CCCc1cccc[n+]1CC.O=S(=O)([N-]S(=O)(=O)C(F)(F)F)C(F)(F)F`: the viscosity is listed as 41.8 ± 0.26 mPa·s.

As for `CCCCc1cccc[n+]1CC.O=S(=O)([N-]S(=O)(=O)C(F)(F)F)C(F)(F)F`, the viscosity was 43.11 ± 0.27 mPa·s.

On to `CCCCCCCc1cccc[n+]1CC.O=S(=O)([N-]S(=O)(=O)C(F)(F)F)C(F)(F)F`, for which the viscosity is listed as 51.17 ± 0.27 mPa·s.

For the compound `CCCCCCCCc1cccc[n+]1CC.O=S(=O)([N-]S(=O)(=O)C(F)(F)F)C(F)(F)F`, the viscosity amounted to 59 ± 0.34 mPa·s.

Take `CCCCCc1cccc[n+]1CC.O=S(=O)([N-]S(=O)(=O)C(F)(F)F)C(F)(F)F`: the viscosity was 43.06 ± 0.27 mPa·s.

Take `CCCCCCc1cccc[n+]1CC.O=S(=O)([N-]S(=O)(=O)C(F)(F)F)C(F)(F)F`: the viscosity stood at 46.51 ± 0.29 mPa·s.

The data set is the same for the next values; noted with them: 318.15 K; 101.33 kPa; Liquid; Vibrating tube method.
In the case of `CCc1cccc[n+]1CC.O=S(=O)([N-]S(=O)(=O)C(F)(F)F)C(F)(F)F` [1,2-diethylpyridin-1-ium bis((trifluoromethyl)sulfonyl)imide], the mass density came to 1451.6 ± 1.2 kg/m3.

Consider `CCCc1cccc[n+]1CC.O=S(=O)([N-]S(=O)(=O)C(F)(F)F)C(F)(F)F`, for which the mass density is 1428.4 ± 1.1 kg/m3.

Turning to `CCCCc1cccc[n+]1CC.O=S(=O)([N-]S(=O)(=O)C(F)(F)F)C(F)(F)F`, the mass density was 1390.9 ± 1.1 kg/m3.

As for `CCCCCCCc1cccc[n+]1CC.O=S(=O)([N-]S(=O)(=O)C(F)(F)F)C(F)(F)F`, the mass density worked out at 1303.6 ± 1.1 kg/m3.

Regarding `CCCCCCCCc1cccc[n+]1CC.O=S(=O)([N-]S(=O)(=O)C(F)(F)F)C(F)(F)F`, the mass density is 1280.6 ± 1.1 kg/m3.

Regarding `CCCCCc1cccc[n+]1CC.O=S(=O)([N-]S(=O)(=O)C(F)(F)F)C(F)(F)F`, the mass density is listed as 1353.4 ± 1.1 kg/m3.

`CCCCCCc1cccc[n+]1CC.O=S(=O)([N-]S(=O)(=O)C(F)(F)F)C(F)(F)F`: the mass density amounted to 1326.8 ± 1.1 kg/m3.

The same data set, now with this note: 323.15 K; 101.33 kPa; Liquid; Concentric cylinders viscometry.
Take `CCc1cccc[n+]1CC.O=S(=O)([N-]S(=O)(=O)C(F)(F)F)C(F)(F)F` [1,2-diethylpyridin-1-ium bis((trifluoromethyl)sulfonyl)imide]: the viscosity is listed as 26.16 ± 0.16 mPa·s.

As to `CCCc1cccc[n+]1CC.O=S(=O)([N-]S(=O)(=O)C(F)(F)F)C(F)(F)F`, the viscosity is on record as 34.57 ± 0.21 mPa·s.

With `CCCCc1cccc[n+]1CC.O=S(=O)([N-]S(=O)(=O)C(F)(F)F)C(F)(F)F`, the viscosity is reported as 35.55 ± 0.22 mPa·s.

For `CCCCCCCc1cccc[n+]1CC.O=S(=O)([N-]S(=O)(=O)C(F)(F)F)C(F)(F)F`, the viscosity is listed as 41.88 ± 0.26 mPa·s.

For the compound `CCCCCCCCc1cccc[n+]1CC.O=S(=O)([N-]S(=O)(=O)C(F)(F)F)C(F)(F)F`, the viscosity is 47.97 ± 0.3 mPa·s.

For the compound `CCCCCc1cccc[n+]1CC.O=S(=O)([N-]S(=O)(=O)C(F)(F)F)C(F)(F)F`, the viscosity stood at 35.52 ± 0.22 mPa·s.

Consider `CCCCCCc1cccc[n+]1CC.O=S(=O)([N-]S(=O)(=O)C(F)(F)F)C(F)(F)F`, for which the viscosity is listed as 38.22 ± 0.23 mPa·s.

The same data set, now with this note: 323.15 K; 101.33 kPa; Liquid; Vibrating tube method.
Regarding `CCc1cccc[n+]1CC.O=S(=O)([N-]S(=O)(=O)C(F)(F)F)C(F)(F)F` [1,2-diethylpyridin-1-ium bis((trifluoromethyl)sulfonyl)imide], the mass density is 1446.9 ± 1.2 kg/m3.

Regarding `CCCc1cccc[n+]1CC.O=S(=O)([N-]S(=O)(=O)C(F)(F)F)C(F)(F)F`, the mass density is listed as 1423.8 ± 1.1 kg/m3.

Consider `CCCCc1cccc[n+]1CC.O=S(=O)([N-]S(=O)(=O)C(F)(F)F)C(F)(F)F`, for which the mass density is 1386.4 ± 1.1 kg/m3.

For `CCCCCCCc1cccc[n+]1CC.O=S(=O)([N-]S(=O)(=O)C(F)(F)F)C(F)(F)F`, the mass density came out at 1299.4 ± 1.1 kg/m3.

As to `CCCCCCCCc1cccc[n+]1CC.O=S(=O)([N-]S(=O)(=O)C(F)(F)F)C(F)(F)F`, the mass density is recorded as 1276.4 ± 1.1 kg/m3.

`CCCCCc1cccc[n+]1CC.O=S(=O)([N-]S(=O)(=O)C(F)(F)F)C(F)(F)F`: the mass density turned out to be 1349 ± 1.1 kg/m3.

As for `CCCCCCc1cccc[n+]1CC.O=S(=O)([N-]S(=O)(=O)C(F)(F)F)C(F)(F)F`, the mass density was found to be 1322.5 ± 1.1 kg/m3.

The data set is the same for the next values; noted with them: 328.15 K; 101.33 kPa; Liquid; Concentric cylinders viscometry.
In the case of `CCc1cccc[n+]1CC.O=S(=O)([N-]S(=O)(=O)C(F)(F)F)C(F)(F)F` [1,2-diethylpyridin-1-ium bis((trifluoromethyl)sulfonyl)imide], the viscosity was determined as 22.38 ± 0.14 mPa·s.

Regarding `CCCc1cccc[n+]1CC.O=S(=O)([N-]S(=O)(=O)C(F)(F)F)C(F)(F)F`, the viscosity is reported as 28.96 ± 0.18 mPa·s.

These data come from the NIST ThermoML archive (doi:10.1016/j.fluid.2016.05.030).
